Experiments:
NMDARs = experiment: NMDAR currents in cultured cortical neurons of WT and TRPM2-KO mice (whole cell recording); assay type: cell-based, mouse
Description: FIGS. 4O and 4P show the effects of stausporine on NMDAR currents recorded from cortical neurons cultured for 14 days. FIG. 4O show representative NMDAR currents elicited at −80 mV by 10 μM NMDA in WT and TRPM2-KO (gM2KO) neurons treated with or without Stausporine at 1 μM for overnight. FIG. 4P show the average current amplitude (ns, p>0.05; **, p<0.01; ANOVA, Bonferroni's test; mean±SEM, n=11, 10, 10, 12 neurons from 2 mice respectively).
FIG. 4S show representative NMDAR currents elicited by NMDA in WT and TRPM2-KO neurons treated with or without endosidin2 at 1 μM for overnight.
FIGS. 5I-5K show the effects of TAT-EE3 on PKC induced changes of NMDAR currents recorded in cortical neurons of WT and TRPM2-KO. Neurons were incubated with 10 μM TAT-SC or TAT-EE3 for overnight before current recording. FIG. 5I show representative NMDAR currents elicited by 10 μM NMDA at −80 mV before and after PMA (1 μM) perfusion for 20 s. TAT-SC or TAT-EE3 10 μM was included in the pipette solution for current recording.
FIGS. 6A and 6B show the effects of TAT-EE3 on NMDAR currents in WT and gM2KO cortical neurons cultured for 14 days. […] TAT-SC or TAT-EE3 10 μM was included in the pipette solution during current recording.
(§1) Mice pups at P0 were euthanized based on animal protocol. Whole brain was dissected out immediately and immersed in ice-cold Hank's Balanced Salt Solution (HBSS). Meninges were removed thoroughly, and tissue of different brain areas was taken based on purposes. Brain tissue was cut into small pieces and digested with 0.25% trypsin (Thermal Fisher Scientific, 15090-046) in HBSS at 37° C. for 20 min. Digestion solution was quickly removed, and tissue pellets are washed with Neurobasal® Medium (Thermal Fisher Scientific, 21103-049) for 3 times. Cells were resuspended with appropriate amount of Neurobasal® Medium supplemented with 2% B27® supplement (Thermal Fisher Scientific, 17504-044), 3% horse serum (Thermal Fisher Scientific, 16050114), 0.25% L-glutamine (Thermal Fisher Scientific, 25030-081) and 1% penicillin/streptomycin (Thermal Fisher Scientific, 15140-122). Isolated cells were counted and plated on coverslips pre-coated with poly-L-lysine (Sigma-Aldrich, P4707) at a density about 500×10^3 cells/cm2 for OGD and H2O2 treatment, and 100×10^3 cells/cm2 for current recording. Cytosine arabinoside (Sigma-Aldrich, C1768) was added to maintain a concentration at 1 μM to inhibit the proliferation of non-neuronal cells. 24 h after plating, culture medium was changed to Neurobasal® Medium supplemented with 2% B27® supplement, 0.25% L-glutamine and 1% penicillin/streptomycin. The concentration of Cytosine arabinoside (araC) was increased to 2 μM. Medium was changed every 3 days. OGD and H2O2 treatment was conducted at 7th day of culture, and current recording was conducted at 7th, 10th and 14th day of culture.
Whole cell currents were recorded using an Axopatch 200B amplifier. Data were digitized at 10 or 20 kHz and digitally filtered offline at 1 kHz. Patch electrodes were pulled from borosilicate glass and fire-polished to a resistance of ˜3 MΩ when filled with internal solutions. Series resistance (Rs) was compensated up to 90% to reduce series resistance errors to <5 mV. Cells in which Rs was >10 MΩ were discarded (Du, J., Xie, J., and Yue, L. (2009). Modulation of TRPM2 by acidic pH and the underlying mechanisms for pH sensitivity. J Gen Physiol 134, 471-88).
For heterologous expression, transfected HEK-293 cells were identified by GFP fluorescence. TRPM2 current recording in transfected HEK-293T cells was performed as we previously reported (Du, J., Xie, J., and Yue, L. (2009). Intracellular calcium activates TRPM2 and its alternative spliced isoforms. Proceedings of the National Academy of Sciences 107, 7239-44; Du, J., Xie, J., and Yue, L. (2009). Modulation of TRPM2 by acidic pH and the underlying mechanisms for pH sensitivity. J Gen Physiol 134, 471-88). […]

[1] = test system: cultured cortical neurons; experiment: OGD-induced Ca2+ overload and neuronal death, Fura-2 ratio Ca2+ imaging; assay type: cell-based, mouse; settings: for OGD-mediated neuronal death: WT neurons, 10 μM overnight
Description: FIGS. 6C-6E show the effects of TAT-EE3 on Ca2+ overload and neuronal death caused by OGD. Cultured WT and gM2KO cortical neurons were treated with 10 μM TAT-SC and TAT-EE3 for overnight before experiments.
as §1
Oxygen-glucose deprivation (OGD) was achieved by replace the glucose in aCSF with sucrose, and 95% N2 and 5% CO2 was used to equilibrate sucrose-aCSF to displace oxygen. This condition typically yielded a pO2 of <5 mm Hg in the imaging chamber (Thompson, R. J., Zhou, N., and Mac Vicar, B. A. (2006). Ischemia opens neuronal gap junction hemichannels. Science 312, 924-27). At least 10 min was allowed for neurons to adapt to the change from culture medium to aCSF before OGD was applied.
Changes of intracellular Ca2+ was measured using ratio Ca2+ imaging as we describe previously (Du, J., Xie, J., Zhang, Z., Tsujikawa, H., Fusco, D., Silverman, D., Liang, B., and Yue, L. (2010). TRPM7-mediated Ca2+ signals confer fibrogenesis in human atrial fibrillation. Circulation research 106, 992-1003). In brief, Fura-2 AM (Thermal Fisher Scientific, F1221) was dissolved in DMSO to make a stock concentration at 1 mM. Pre-warmed Neurobasal® Medium (Thermal Fisher Scientific, 21103-049) was used to dilute Fura-2 AM to a working concentration at 2.5 μM, and 0.02% Pluronic™ F-127 (Thermal Fisher Scientific, P3000MP) was added to facilitate loading of Fura-2 AM. Cells plated on 25 mm glass coverslips were washed using pre-warmed PBS for 3 times, and then incubated with 2 ml of Fura-2 AM working solution for 30˜45 min at 37° C. […]
Ca2+ influx was measured by perfusing the cells with Tyrode's solution for transfected HEK293T cells or aCSF for neurons under different conditions. […] Fluorescence intensities at 510 nm with 340 nm and 380 nm excitation were collected at a rate of 1 Hz using CoolSNAP HQ2 (Photometrics) and data were analyzed using NIS-Elements (Nikon). […]

[2] = WT neurons incubated with 10 μM peptide overnight, PMA 1 μM 20 s
[3] = pretreatment 10 μM overnight, F340/380

## TAT-EE3: membrane permeable disrupting peptide, sequence YGRKKRRQRRREEDTDSSEEMLALAEE (SEQ ID NO: 4)
NMDARs; 10 μM peptide overnight and in pipette, neurons cultured 14 days
  NMDAR currents in neurons from TRPM2-KO mice: not from TRPM2-KO mice
NMDARs; 10 μM peptide overnight and in pipette, neurons cultured 14 days, 10 μM NMDA, -80 mV
  NMDAR currents in neurons from WT mice: efficiently reduced
NMDARs; [2]
  NMDAR current amplitude before and after PMA perfusion: much smaller
  increase of NMDAR current amplitude induced by PMA: significantly smaller than that in neurons incubated with TAT-SC
NMDARs; neurons from TRPM2-KO mice, 10 μM peptide overnight
  PMA-induced changes of NMDAR currents, TAT-SC vs TAT-EE3: no difference
[1]; 30 min OGD, WT without TAT-EE3 10.6%
  OGD-mediated neuronal death: 3.6%
[1]; 60 min OGD, WT without TAT-EE3 47.6%
  OGD-mediated neuronal death: 9.9%
[1]; 90 min OGD, WT without TAT-EE3 70.5%
  OGD-mediated neuronal death: 45.2%
[1]; [3]
  OGD-induced changes of intracellular Ca2+ in TRPM2-KO neurons: not in TRPM2-KO neurons
  OGD-induced changes of intracellular Ca2+ in WT neurons: significantly reduced
